Measured values published in patent publication US20240336934A1, “CRISPR/CAS9-BASED COMPOSITIONS AND METHODS FOR TREATING RETINAL DEGENERATIONS” (The Johns Hopkins University, priority 2016, published 2024).

Assays:
primary RGCs [1] = conditions: compared with DLK knockdown or knockout alone; cited from earlier work
primary RGCs [2] = experiment: Primary RGC survival (CellTiter-Glo) after immunopanning / colchicine; assay type: cell-based, mouse; conditions: combined knockdown of both DLK and LZK
Text: For this screen, a high-throughput method was developed for knocking down gene expression in primary RGCs, from male and female C57Bl/6 mice (7), with small interfering RNA oligonucleotides (siRNAs) and coupled it with a quantitative assay of RGC survival (CellTiter-Glo, Promega) (5).
In order to identify these other targets, the kinome screen was modified to include Dlk siRNA in every well and sensitize it to those library siRNAs that synergized with DLK knockdown to further increase RGC survival (FIG. 19A). The other modification was to allow 48 hours for extant protein turnover, before exacerbating the immunopanning injury with colchicine, a microtubule destabilizer that has been used to model axon injury in vitro and in vivo (15, 16).

DLK [3] = target: T1, DLK (Homo sapiens, UniProt Q12852); conditions: published kinase inhibitor profiling data; cited from earlier work
T1 sequence (Q12852 1-859): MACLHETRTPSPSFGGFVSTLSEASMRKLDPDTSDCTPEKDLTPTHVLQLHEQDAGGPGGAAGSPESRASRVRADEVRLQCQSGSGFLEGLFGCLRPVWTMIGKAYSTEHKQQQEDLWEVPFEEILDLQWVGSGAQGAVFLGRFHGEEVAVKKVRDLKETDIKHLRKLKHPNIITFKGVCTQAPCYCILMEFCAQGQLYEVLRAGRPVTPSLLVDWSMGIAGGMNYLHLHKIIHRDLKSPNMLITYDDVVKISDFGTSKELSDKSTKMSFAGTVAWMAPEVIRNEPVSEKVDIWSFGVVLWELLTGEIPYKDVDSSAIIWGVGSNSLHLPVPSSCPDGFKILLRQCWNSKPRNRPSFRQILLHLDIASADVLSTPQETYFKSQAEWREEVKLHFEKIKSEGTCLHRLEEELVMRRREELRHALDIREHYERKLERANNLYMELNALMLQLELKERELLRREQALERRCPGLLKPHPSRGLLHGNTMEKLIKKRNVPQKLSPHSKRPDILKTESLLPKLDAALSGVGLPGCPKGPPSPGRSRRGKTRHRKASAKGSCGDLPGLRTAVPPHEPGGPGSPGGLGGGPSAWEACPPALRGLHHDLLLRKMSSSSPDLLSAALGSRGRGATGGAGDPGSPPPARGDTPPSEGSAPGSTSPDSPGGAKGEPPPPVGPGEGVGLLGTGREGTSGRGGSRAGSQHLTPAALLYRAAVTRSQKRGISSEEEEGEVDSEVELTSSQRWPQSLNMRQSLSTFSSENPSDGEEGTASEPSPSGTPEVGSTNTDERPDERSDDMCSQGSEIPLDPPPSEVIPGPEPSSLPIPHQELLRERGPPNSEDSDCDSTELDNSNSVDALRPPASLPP

LZK = target: T2, LZK (Homo sapiens, UniProt O43283); conditions: published kinase inhibitor profiling data; cited from earlier work
T2 sequence (O43283 1-966): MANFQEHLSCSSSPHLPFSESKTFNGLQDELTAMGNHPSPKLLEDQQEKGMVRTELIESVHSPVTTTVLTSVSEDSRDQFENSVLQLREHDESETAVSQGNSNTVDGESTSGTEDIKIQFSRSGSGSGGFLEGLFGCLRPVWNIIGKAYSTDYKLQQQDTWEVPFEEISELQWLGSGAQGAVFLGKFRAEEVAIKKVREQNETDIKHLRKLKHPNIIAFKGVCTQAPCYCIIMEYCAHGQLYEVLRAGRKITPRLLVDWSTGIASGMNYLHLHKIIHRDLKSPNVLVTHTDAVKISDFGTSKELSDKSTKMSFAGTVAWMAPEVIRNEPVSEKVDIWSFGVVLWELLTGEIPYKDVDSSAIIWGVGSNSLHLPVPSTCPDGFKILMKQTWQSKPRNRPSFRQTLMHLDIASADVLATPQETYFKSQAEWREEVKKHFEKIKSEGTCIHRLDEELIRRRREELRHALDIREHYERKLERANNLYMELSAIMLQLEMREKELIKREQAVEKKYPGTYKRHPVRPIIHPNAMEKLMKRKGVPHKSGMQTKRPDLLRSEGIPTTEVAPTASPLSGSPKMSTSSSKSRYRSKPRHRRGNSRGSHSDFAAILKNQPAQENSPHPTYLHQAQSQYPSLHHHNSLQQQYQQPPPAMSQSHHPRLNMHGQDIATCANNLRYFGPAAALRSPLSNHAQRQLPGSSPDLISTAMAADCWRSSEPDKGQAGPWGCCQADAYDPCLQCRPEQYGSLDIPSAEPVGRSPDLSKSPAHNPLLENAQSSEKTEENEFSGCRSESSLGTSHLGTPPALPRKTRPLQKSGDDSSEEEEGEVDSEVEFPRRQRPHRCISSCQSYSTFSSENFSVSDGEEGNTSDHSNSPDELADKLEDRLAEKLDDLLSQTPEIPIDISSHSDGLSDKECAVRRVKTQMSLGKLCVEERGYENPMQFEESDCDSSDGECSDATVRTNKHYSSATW

RGCs = conditions: rat optic nerve transection and glaucoma models; cited from earlier work
hESC-derived RGCs = experiment: Survival of hESC-derived RGCs after colchicine challenge; assay type: cell-based, human; conditions: two days after colchicine (1 μM); tozasertib (1 μM), Genentech inhibitor 123 (0.1 μM)
Protocol: FIG. 69A depicts survival (±SD) of hESC-derived RGCs two days after a challenge with vehicle or colchicine (1 μM) in the presence of the DLK/LZK inhibitors tozasertib (1 μM), Genentech inhibitor 123 (0.1 μM) or a vehicle control. FIG. 69B depicts survival (±SD) of hESC-derived RGCs two days after a challenge with colchicine (1 μM) in the presence of increasing doses of sunitinib.

Dlk [4] = experiment: scAAV/lentivirus transduction of RGCs from Cas9 mouse; BglII assay for Dlk gene editing; assay type: cell-based; conditions: gRNA delivered by ssAAV, Cas9 present from the mouse
Text: Cells were harvested from the Cas9 mouse, and transduced in vitro. […] The construct was packaged to produce a self-complementary AAV (scAAV). […] Cells were harvested from the Cas9 mouse, and transduced in vitro. […] The gRNA (mm079) was delivered by ssAAV and Cas9 was present from the mouse
Titration of scAAV virus transducing either WT RGC or RGCs derived from the Cas9 mouse. […] In this assay, we are assaying for cutting by loss of a restriction enzyme site. […] A construct was generated using the H1 promoter to express a gRNA (shown in black) and mCherry simultaneously. […] The construct was packaged to produce a self-complementary AAV (scAAV).
To test this system, an AAV construct was generated that used the H1 promoter to express an mCherry-histone 2B fusion in the Pol II direction and the Dlk #4 gRNA (5′[sequence] 3′ (SEQ ID NO: 163)), which conveniently targets a BglII site (FIGS. 19G and 1H), in the Pol III direction (Dlk gRNA:H1:H2B-mCherry). […]
For restriction analysis, genomic DNA was extracted by resuspending cells in QuickExtract solution (Epicentre, Madison, WI), incubating at 65° C. for 20 min, and then at 98° C. for 20 min. The extract solution was used directly or cleaned using DNA Clean and Concentrator (Zymo Research, Irvine, CA), and quantitated by NanoDrop (Thermo 30 Fisher Scientific).

## Cc1cc(Nc2cc(N3CCN(C)CC3)nc(Sc3ccc(NC(=O)C4CC4)cc3)n2)[nH]n1 [tozasertib]
Primary RGCs [1]
  RGC survival in vitro: consistently improved RGC survival in vitro more than DLK knockdown or knockout alone
Primary RGCs [2]
  RGC survival on addition of drug to combined knockdown of DLK and LZK: had no effect
DLK [3]
  inhibitor of DLK: identified as an inhibitor of DLK
LZK
  inhibition of LZK: does inhibit LZK
RGCs
  protection of RGCs: protected RGCs in both the rat optic nerve transection and glaucoma models
hESC-derived RGCs
  survival of hESC-derived RGCs: promotes the survival of human ESC-derived RGCs

## GAAGAAGGTTCGAGATCTCAAGG (chemistry not given here) [mm079]
Dlk [4]
  targeting as detected by a BglII assay: ~100%
